Measurements reported in patent US6399562B2, “Solvent compositions” (Ausimont S.p.A., priority 2000, dated 2002).
Where two headings read alike, the source gives them in different places. One block for each compound: values may come before it.

Assays:
[1] = Evaluation of the azeotropic behaviour: boiling temperature at 1.013 bar; assay type: physicochemical; conditions: pressure of 1.013 absolute bar
Experimental: The mixture of known composition and weight is introduced into a small glass cell, previously evacuated, having an internal volume equal to about 20 cm^3, equipped with metal connections, feeding valve and with a pressure transducer to evaluate the system vapour pressure.
The filling ratio by volume is initially equal to about 0.8% by v.
The temperature is measured close to the equilibrium cell by a thermometer the accuracy of which is equal to +/−0.01° C.; particular attention has been paid so that the external temperature measured in the bath is really the internal one of the cell.
By changing the composition of the mixture it is possible to evaluate possible deviations with respect to the ideality and therefore to identify the azeotropic composition which, as said, will be characterized by an absolute minimum or maximum with respect to the pure components.

[2] = Removal of oily products from printed circuits, oil (1); conditions: 5 minutes of dipping
Experimental: (§1) The removal capability of oily products from printed circuits has been checked according to the following procedure:
(§2) a known amount of an oily product is uniformly spread on the surface of a printed circuit having 35×9 mm sizes; 0.100 g of oil are placed only on a single surface of the circuit, then the article is dipped into the solution to be tested.
(§3) After 5 minutes of dipping, the circuit is allowed to dry for additional 5 minutes at room temperature so as to remove the solvent traces and then is weighed again on an analytical balance.
[…] The compositions are placed in a vessel equipped with a condenser which recovers the vapour of the boiling solution.
(§4) In all the tests 30 ml of the solvent solution have been used.
(§5) The results are reported in Table 6 and are expressed as removed oil percentage.

[3] = Removal of oily products from printed circuits, oil (2); conditions: 5 minutes of dipping
Experimental: as §1, §2, §3
(§6) Tests of the solvent mixtures are carried out close to the boiling temperature. The compositions are placed in a vessel equipped with a condenser which recovers the vapour of the boiling solution.
as §4, §5

[4] = Removal of oily products from printed circuits, oil (3); conditions: 5 minutes of dipping
Experimental: as §1, §2, §3, §6, §4, §5

[5] = Removal of oily products from printed circuits, oil (4); conditions: 5 minutes of dipping
Experimental: as §1, §2, §3, §6, §4, §5

rat [6] = assay: Acute toxicity in rat by os, LD50
rat [7] = assay: Acute toxicity in rat by inhalation, LC50
[8] = chemical-physical properties of the hydrofluoropolyether
[9] = Preliminary studies relating to acute toxicity; assay type: in vivo
[10] = background statement; cited from earlier work
[11] = solubility of propellants in solvent compositions for aerosol applications; assay type: physicochemical
Experimental: The solubility of HFC 134a, HFC 227ea and HFC 236ea with some solvent compositions for aerosol applications for the cleaning of electronic components has been studied. The solvent composition is placed in a glass test tube having thick walls, resistant to high pressures, and closed at an end by a metal valve. After cooling, the propellant is fed to the test tube and mixed with the solvent mixture. The system is introduced in a thermostatic bath and heated up to 0°, 25° and 50° C. The complete solubility of the propellant in the solvent composition used for the test has been visually observed. The solubility results of the used propellants in the solvent compositions, at the above three different temperatures, are reported in Table 7.

SMILES: CCCBr [1-Bromo-propane, 1-bromo-propane]
- Boiling T of pure Component B [1]: Boiling T = 69.60 °C

SMILES: FC(F)(Cl)C(F)(Cl)Cl [CFC 113, 1,1,2-trichloro-1,2,2-trifluoroethane]
- Percentage of removed oil, oil type (1) ([2]; 23 ° C.): 100 % by weight
- Percentage of removed oil, oil type (1) ([2]; 47 ° C.): 100 % by weight
- Percentage of removed oil, oil type (2) ([3]; 23 ° C.): 99.5 % by weight
- Percentage of removed oil, oil type (2) ([3]; 47 ° C.): 100 % by weight
- Percentage of removed oil, oil type (3) ([4]; 23 ° C.): 100 % by weight
- Percentage of removed oil, oil type (3) ([4]; 47 ° C.): 100 % by weight
- Percentage of removed oil, oil type (4) ([5]; 23 ° C.): 100 % by weight
- Percentage of removed oil, oil type (4) ([5]; 47 ° C.): 100 % by weight
- Acute toxicity in rat by os, LD50 (rat [6]): 43,000 ppmv/4 hours
- Acute toxicity in rat by inhalation, LC50 (rat [7]): 50,000 ppmv/4 hours
- Isotherm evaporation rate at 20° C. [8]: 1 mg/min
- Surface tension at 20° C. [8]: 18.1 dynes/cm
- Liquid density at 25° C. [8]: 1.56 g/mL
- Evaporation latent heat ([8]; at 1.013 bar): 144 kJ/kg
- Flammability in air [8]: non

SMILES: FC(F)OC(F)(F)C(F)(F)OC(F)F [HCF2OCF2CF2OCF2H, 1-difluoromethoxy-1,1,2,2-tetrafluoroethyl difluoromethyl ether]
- acute toxicity, biological activity [9]: low biological activity
- Acute toxicity in rat by os, LD50 (rat [6]): >5,000 ppmv/4 hours
- Acute toxicity in rat by inhalation, LC50 (rat [7]): >32,000 ppmv/4 hours
- dehydrofluorination reactions (chemical stability) [8]: does not undergo dehydrofluorination reactions
- Isotherm evaporation rate at 20° C. [8]: 0.6 mg/min
- Surface tension at 20° C. [8]: 15.5 dynes/cm
- Liquid density at 25° C. [8]: 1.60 g/mL
- Boiling temperature ([8]; at 1.013 bar): 58.21 °C
- Evaporation latent heat ([8]; at 1.013 bar): 139 kJ/kg
- Flammability in air [8]: non

SMILES: CC(F)(Cl)Cl [HCFC 141b]
- flammability [10]: moderately flammable

- solubility of the propellant in the solvent composition ([11]; in HCF2OCF2CF2OCF2H/Bromo-propane (75.0) (25.0), propellant 57.2 % by wt, 0 ° C.): S
- solubility of the propellant in the solvent composition ([11]; in HCF2OCF2CF2OCF2H/Bromo-propane (75.0) (25.0), propellant 57.2 % by wt, 25 ° C.): S
- solubility of the propellant in the solvent composition ([11]; in HCF2OCF2CF2OCF2H/Bromo-propane (75.0) (25.0), propellant 57.2 % by wt, 50 ° C.): S
- solubility of the propellant in the solvent composition ([11]; in HCF2OCF2CF2OCF2H/Isopentane (45.0) (55.0), propellant 51.2 % by wt, 0 ° C.): S
- solubility of the propellant in the solvent composition ([11]; in HCF2OCF2CF2OCF2H/Isopentane (45.0) (55.0), propellant 51.2 % by wt, 25 ° C.): S
- solubility of the propellant in the solvent composition ([11]; in HCF2OCF2CF2OCF2H/Isopentane (45.0) (55.0), propellant 51.2 % by wt, 50 ° C.): S
- solubility of the propellant in the solvent composition ([11]; in HCF2OCF2CF2OCF2H/Methyl-acetate (75.0) (25.0), propellant 51.3 % by wt, 0 ° C.): S
- solubility of the propellant in the solvent composition ([11]; in HCF2OCF2CF2OCF2H/Methyl-acetate (75.0) (25.0), propellant 51.3 % by wt, 25 ° C.): S
- solubility of the propellant in the solvent composition ([11]; in HCF2OCF2CF2OCF2H/Methyl-acetate (75.0) (25.0), propellant 51.3 % by wt, 50 ° C.): S
SMILES: FCC(F)(F)F [HFC 134a, 1,1,1,2-tetrafluoroethane]

- solubility of the propellant in the solvent composition ([11]; in HCF2OCF2CF2OCF2H/Methyl-acetate (75.0) (25.0), propellant 53.2 % by wt, 0 ° C.): S
- solubility of the propellant in the solvent composition ([11]; in HCF2OCF2CF2OCF2H/Methyl-acetate (75.0) (25.0), propellant 53.2 % by wt, 25 ° C.): S
- solubility of the propellant in the solvent composition ([11]; in HCF2OCF2CF2OCF2H/Methyl-acetate (75.0) (25.0), propellant 53.2 % by wt, 50 ° C.): S
SMILES: FC(C(F)(F)F)C(F)(F)F [HFC 227ea, 1,1,1,2,3,3,3-heptafluoropropane]

SMILES: FC(F)C(F)C(F)(F)F (centres unmarked) [HFC 236ea, 1,1,1,2,3,3-hexafluoropropane]
- solubility of the propellant in the solvent composition [11]: S

- Boiling T of pure Component B [1]: Boiling T = 55.78 °C
SMILES: COC(C)=O [Methyl-acetate, methyl-acetate]
